From US11319289B2, “5-hydroxy pyridine-based compound for use as P2X1 and P2X3 receptor antagonist and pharmaceutical composition comprising same” (GWANGJU INSTITUTE OF SCIENCE AND TECHNOLOGY, priority 2017, dated 2022)
pIC50: −log10 of the molar value.

How the values were obtained:
CYP450 3A4 = target: T1, CYP450 3A4 (Homo sapiens, UniProt P08684); test: CYP inhibition assay (Vivid fluorometric), 3A4; assay type: biochemical; settings: 1 μM in Table 5
T1 construct: purchased Invitrogen
Experimental: CYP450 (1A2, 2C9, 3A4) enzyme assay was performed by a fluorometric assay using a Vivid® CYP450 screening kit (Invitrogen, USA, CA) in a 96-well black plate according to manufacturer's instructions with some modifications. The assay was performed at room temperature, and the final assay volume was 100 μL. […]
A master pre-mixture (enzyme (0.5 nmol recombinant human CYP450 enzyme)/NADP regeneration solution (333 mM glucose-6-phosphate dissolved, 30 U/mL glucose-6-phosphate dehydrogenase in 100 mM KH2PO4 solution at pH 8.0)) was prepared as a CYP450 reaction buffer (200 mM KH2PO4, pH 8.0). The master pre-mixture was added to each well of the 96 well plate, followed by the vehicle DMSO (control) and test compounds, and the mixture was preincubated for 10 minutes in the plate for background reading. Subsequently, the enzyme reaction was immediately initiated through the addition of CYP450 substrate/NADP^+ mixture. After incubation for 40 minutes, the fluorescence of the product was measured with a CHAMELEON™ multi-technology plate reader (2C9, 3A4: excitation wavelength of 530 nm and emission wavelength of 590 nm, 1A2: excitation wavelength of 415 nm and emission wavelength of 460 nm). The effect of the test compounds on CYP450 (1A2, 2C9, 3A4) was expressed as the percentage of enzyme activity.

hERG K+ channel = target: T2, hERG K+ channel (Homo sapiens, UniProt Q12809); test: hERG K+ channel patch-clamp assay in CHO-K1 Tet-On hERG cells; assay type: cell-based
T2 construct: host or cells: CHO-K1 Tet-On hERG cells
Experimental: 2-2. hERF Channel Test Method
hERG K^+ Channel Conventional Patch-Clamp Assay
CHO-K1 cells expressing hERG channels via an inducible Tet-On gene expression system (CHO-K1 Tet-On hERG cells) were purchased from IonGate Biosciences GmbH (Frankfurt, Germany). CHO-K1 Tet-On hERG cells were incubated in Dulbecco's modified Eagle's medium (DMEM) containing 10% (v/v) fetal bovine serum, penicillin (100 U/mL), streptomycin (100 μg/mL), fungizone (2.5 μg/mL), as well as selection antibiotics, geneticin G418 (200 μg/mL), hygromycin (200 μg/mL) and puromycin (2 μg/mL) in a humidified condition of 5% CO2 at 37° C. The cells were passaged by treatment with trypsin-EDTA every three days. […]
NPC-16 Patchliner (Nanion Technologies, Munchen, Germany), an automated patch-clamp apparatus, was used for the whole-cell recordings. Whole-cell currents were recorded using an intracellular solution (unit in mM) containing 50 KCl, 60 KF, 10 NaCl, 2 MgCl2, 20 EGTA and 10 HEPES (pH 7.2) and an extracellular solution (unit in mM) containing 140 NaCl, 4 KCl, 2 CaCl2, 1MgCl2, 5 glucose and 10 HEPES (pH 7.4). […]
hERG channel currents were recorded using a parallel EPC-10 patch clamp amplifier (HEKA Elektronik, Lambrecht/Pfalz, Germany), and low-pass filtering (10 kHz) was performed with a 4-pole Bessel filter. […]

T2 sequence (Q12809 whole entry): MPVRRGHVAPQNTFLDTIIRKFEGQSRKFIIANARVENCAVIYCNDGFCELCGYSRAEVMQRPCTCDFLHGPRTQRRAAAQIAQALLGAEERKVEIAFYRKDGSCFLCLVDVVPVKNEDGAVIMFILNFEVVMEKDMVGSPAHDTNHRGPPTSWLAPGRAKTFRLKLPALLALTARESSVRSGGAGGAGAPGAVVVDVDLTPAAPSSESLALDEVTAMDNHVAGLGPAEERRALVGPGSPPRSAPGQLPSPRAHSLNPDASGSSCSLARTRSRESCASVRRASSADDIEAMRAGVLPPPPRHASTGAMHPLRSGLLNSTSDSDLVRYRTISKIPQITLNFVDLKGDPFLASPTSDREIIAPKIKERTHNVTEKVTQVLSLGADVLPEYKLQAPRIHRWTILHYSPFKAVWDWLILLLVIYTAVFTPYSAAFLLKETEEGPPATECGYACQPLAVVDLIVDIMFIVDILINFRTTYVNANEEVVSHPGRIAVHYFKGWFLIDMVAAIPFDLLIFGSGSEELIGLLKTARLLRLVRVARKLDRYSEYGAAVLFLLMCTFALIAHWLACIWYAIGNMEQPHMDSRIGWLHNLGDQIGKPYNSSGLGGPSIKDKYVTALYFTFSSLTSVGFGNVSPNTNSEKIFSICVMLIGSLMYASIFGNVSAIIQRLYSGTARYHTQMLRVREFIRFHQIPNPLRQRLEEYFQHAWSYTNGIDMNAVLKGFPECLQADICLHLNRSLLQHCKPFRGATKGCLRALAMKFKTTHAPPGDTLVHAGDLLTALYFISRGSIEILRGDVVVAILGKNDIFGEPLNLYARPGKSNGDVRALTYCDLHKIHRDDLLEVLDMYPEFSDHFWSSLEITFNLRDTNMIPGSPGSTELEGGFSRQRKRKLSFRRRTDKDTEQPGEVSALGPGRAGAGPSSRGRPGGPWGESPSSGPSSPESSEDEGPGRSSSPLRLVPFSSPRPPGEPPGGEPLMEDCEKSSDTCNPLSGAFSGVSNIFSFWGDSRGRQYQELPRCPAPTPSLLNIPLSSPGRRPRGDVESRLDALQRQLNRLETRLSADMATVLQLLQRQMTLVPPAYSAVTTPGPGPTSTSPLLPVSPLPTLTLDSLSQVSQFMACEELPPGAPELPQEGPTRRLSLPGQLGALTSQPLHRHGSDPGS
T1 sequence (P08684 whole entry): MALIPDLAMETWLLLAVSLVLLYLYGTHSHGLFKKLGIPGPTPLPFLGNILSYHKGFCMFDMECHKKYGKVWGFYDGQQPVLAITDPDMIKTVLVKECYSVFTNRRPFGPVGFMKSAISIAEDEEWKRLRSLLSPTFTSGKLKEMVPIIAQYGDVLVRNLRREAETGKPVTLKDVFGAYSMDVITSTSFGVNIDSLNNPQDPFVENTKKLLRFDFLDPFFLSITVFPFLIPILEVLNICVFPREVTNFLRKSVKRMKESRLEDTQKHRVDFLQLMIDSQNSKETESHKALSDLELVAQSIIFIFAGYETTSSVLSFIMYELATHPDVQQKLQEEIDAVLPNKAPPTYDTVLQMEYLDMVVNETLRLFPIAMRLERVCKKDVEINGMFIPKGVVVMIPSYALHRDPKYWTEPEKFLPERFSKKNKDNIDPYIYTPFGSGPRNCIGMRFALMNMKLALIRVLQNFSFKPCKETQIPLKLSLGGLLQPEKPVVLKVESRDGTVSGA

- CYP450 inhibition, 3A4 isozyme (CYP450 3A4): weak inhibitory effect
SMILES: CCCc1nc(Cc2cccc(Oc3ccccc3)c2)c(C)c(C(=O)O)c1O [Compound 29, 3-Hydroxy-5-methyl-6-(3-phenoxybenzyl)-2-propylisonicotinic acid]
- pIC50 (hERG K+ channel; patch clamp, CHO-K1 Tet-On hERG cells): < 4.00
- in vitro inhibitory activity against hERG channels (hERG K+ channel; result in words): did not show any inhibitory activity
